# Experimental data published in patent US20210137948A1, “TREATMENT OF INFECTIONS CAUSED BY NEISSERIA GONOCOCCUS USING A HALOGENATED SALICYLANILIDE” (priority 2018, published 2021).
# Where two headings read alike, the source gives them in different places.
# Legend:
# [1] = test system: Neisseria gonorrhoeae CDC panel consisting of 48 isolates; assay: Agar dilution MIC, CDC panel of 48 isolates (Example 2); type: cell-based; details: for MIC: Neisseria gonorrhoeae
# Experimental: Neisseria gonorrhoeae (Neisseria gonocossus) were tested for antimicrobial susceptibility using agar dilution as described by the Clinical and Laboratory Standards Institute (CLSI), see reference (4).
# The concentrations tested for each compound encompass the reported interpretive breakpoints and consist of 8 or more doubling dilutions, ensuring that there is one dilution below the lowest value of QC.
# GC agar base +1% defined growth supplement.
# Initial screening strains: Neisseria gonorrhoeae CDC panel consisting of 48 isolates. The strains were provided by Clinical and Environmental Microbiology Branch, Division of Healthcare Quality Promotion, CDC (Atlanta, US).
# Dilution scheme for reference method: Prepare intermediate 100× antimicrobial agent solutions by making successive serial twofold dilutions. Then, add one part of the 100× antimicrobial solution to […] of molten agar. Plates containing no antimicrobial agent solutions are made for use as growth controls. It is important that no longer than one hour elapses between the time that the stock solution is thawed, the dilutions are prepared and added to the base medium and the plates are poured, see reference (5).
# • Add appropriate dilutions of antimicrobial solution to molten test agars that have been allowed to equilibrate in a water bath to 50° C. • Mix the agar and antimicrobial solution thoroughly and pour (20 mL) into Petri dishes on a level surface. Pour quickly after mixing to prevent cooling and partial solidification in the mixing container. Avoid generating bubbles when mixing. • Allow the agar to solidify at room temperature and store them in sealed plastic bags at 2 to 8° C. for up to five days. Preferably use with 24 hours. • Allow plates stored at 2 to 8° C. to equilibrate to room temperature before use. Make certain that the agar surface is dry before inoculating the plates. If necessary, place the plates in an incubator or laminar flow hood for approximately 30 minutes with their lids ajar to hasten drying of the agar surface.
# Inoculum preparation: Prepare a standardized inoculum for the agar dilution method by suspending isolated colonies of Neisseria gonorrhoeae selected from an 18-24 hour-old chocolate agar plate directly in Mueller Hinton Broth (MHB) to achieve the density equivalent to a 0.5 McFarland standard and adjusted to obtain a cell density of ˜1-2×10^8 CFU/mL. For N. gonorrhoeae, the McFarland solutions are made at a reading of ˜0.80 in densitometer (Grant Instruments DEN-1B Densitometer) because these values have been evaluated and correspond to the desired CFU/mL count.
# Dilution of inoculum suspension: Cultures adjusted to the 0.5 McFarland standard contain approximately 1 to 2×10^8 CFU/mL with most species, and the final inoculum required is 10^4 CFU per spot. When using replicators with 3-mm pins that deliver ˜2.5 μL, dilute the 0.5 McFarland suspension 1:10 in sterile MHB to obtain a concentration of 10^7 CFU/mL. The final inoculum on the agar will be approximately 10^4 CFU per spot. Use the adjusted suspensions for final inoculation within 60 minutes of preparation, see reference (5).
# The following procedure was followed: • Arrange the tubes containing the adjusted and diluted bacterial suspensions (10^7 CFU/mL) in order in a rack. Place an aliquot of each well-mixed suspension into the corresponding well in the replicator inoculum block (if being used). • Mark the agar plates for orientation of the inoculum spots. • Apply an aliquot of each inoculum (2.5 μL) to the agar surface, either with an inocula-replicating device or pipette, to obtain a final concentration of ˜10^4 CFU/spot. • Inoculate a growth-control plate (no antimicrobial agent) first and then, starting with the lowest concentration, inoculate the plates containing the different antimicrobial concentrations. […]
# rabbits = details: p.o.; cited from earlier work
# mice = details: p.o., cited from earlier work
# rats = details: p.o., cited from earlier work
smiles,measurement,setting,value
"O=C(Nc1ccc(Oc2ccc(Cl)cc2)c(Cl)c1)c1cc(I)cc(I)c1O [Rafoxanide, rafoxanide]",MIC,"[1]; read-out: MIC value, for 46 of the 48 isolates of N. gonorrhoeae",≤ 50.2 µg/mL
same,MIC,"[1]; read-out: Minimal inhibitory concentration, Neisseria gonorrhoeae strain CDC # 165",≤ 0.25 µg/mL
same,MIC,"[1]; read-out: Minimal inhibitory concentration, Neisseria gonorrhoeae strain CDC # 166",≤ 0.25 µg/mL
same,MIC,"[1]; read-out: Minimal inhibitory concentration, Neisseria gonorrhoeae strain CDC # 167",≤ 0.25 µg/mL
same,MIC,"[1]; read-out: Minimal inhibitory concentration, Neisseria gonorrhoeae strain CDC # 169",≤ 0.25 µg/mL
same,MIC,"[1]; read-out: Minimal inhibitory concentration, Neisseria gonorrhoeae strain CDC # 170",≤ 0.25 µg/mL
same,MIC,"[1]; read-out: Minimal inhibitory concentration, Neisseria gonorrhoeae strain CDC # 171",≤ 0.25 µg/mL
same,MIC,"[1]; read-out: Minimal inhibitory concentration, Neisseria gonorrhoeae strain CDC # 172",≤ 0.25 µg/mL
same,MIC,"[1]; read-out: Minimal inhibitory concentration, Neisseria gonorrhoeae strain CDC # 173",≤ 0.25 µg/mL
same,MIC,"[1]; read-out: Minimal inhibitory concentration, Neisseria gonorrhoeae strain CDC # 174",≤ 0.25 µg/mL
same,MIC,"[1]; read-out: Minimal inhibitory concentration, Neisseria gonorrhoeae strain CDC # 175",≤ 0.25 µg/mL
same,MIC,"[1]; read-out: Minimal inhibitory concentration, Neisseria gonorrhoeae strain CDC # 176",≤ 0.25 µg/mL
same,MIC,"[1]; read-out: Minimal inhibitory concentration, Neisseria gonorrhoeae strain CDC # 177",≤ 0.25 µg/mL
same,MIC,"[1]; read-out: Minimal inhibitory concentration, Neisseria gonorrhoeae strain CDC # 178",≤ 0.25 µg/mL
same,MIC,"[1]; read-out: Minimal inhibitory concentration, Neisseria gonorrhoeae strain CDC # 179",≤ 0.25 µg/mL
same,MIC,"[1]; read-out: Minimal inhibitory concentration, Neisseria gonorrhoeae strain CDC # 180",≤ 0.25 µg/mL
same,MIC,"[1]; read-out: Minimal inhibitory concentration, Neisseria gonorrhoeae strain CDC # 181",≤ 0.25 µg/mL
same,MIC,"[1]; read-out: Minimal inhibitory concentration, Neisseria gonorrhoeae strain CDC # 182",2 µg/mL
same,MIC,"[1]; read-out: Minimal inhibitory concentration, Neisseria gonorrhoeae strain CDC # 183",≤ 0.25 µg/mL
same,MIC,"[1]; read-out: Minimal inhibitory concentration, Neisseria gonorrhoeae strain CDC # 184",≤ 0.25 µg/mL
same,MIC,"[1]; read-out: Minimal inhibitory concentration, Neisseria gonorrhoeae strain CDC # 185",≤ 0.25 µg/mL
same,MIC,"[1]; read-out: Minimal inhibitory concentration, Neisseria gonorrhoeae strain CDC # 186",≤ 0.25 µg/mL
same,MIC,"[1]; read-out: Minimal inhibitory concentration, Neisseria gonorrhoeae strain CDC # 187",≤ 0.25 µg/mL
same,MIC,"[1]; read-out: Minimal inhibitory concentration, Neisseria gonorrhoeae strain CDC # 188",≤ 0.25 µg/mL
same,MIC,"[1]; read-out: Minimal inhibitory concentration, Neisseria gonorrhoeae strain CDC # 189",≤ 0.25 µg/mL
same,MIC,"[1]; read-out: Minimal inhibitory concentration, Neisseria gonorrhoeae strain CDC # 190",≤ 0.25 µg/mL
same,MIC,"[1]; read-out: Minimal inhibitory concentration, Neisseria gonorrhoeae strain CDC # 191",≤ 0.25 µg/mL
same,MIC,"[1]; read-out: Minimal inhibitory concentration, Neisseria gonorrhoeae strain CDC # 192",≤ 0.25 µg/mL
same,MIC,"[1]; read-out: Minimal inhibitory concentration, Neisseria gonorrhoeae strain CDC # 193",≤ 0.25 µg/mL
same,MIC,"[1]; read-out: Minimal inhibitory concentration, Neisseria gonorrhoeae strain CDC # 194",≤ 0.25 µg/mL
same,MIC,"[1]; read-out: Minimal inhibitory concentration, Neisseria gonorrhoeae strain CDC # 195",≤ 0.25 µg/mL
same,MIC,"[1]; read-out: Minimal inhibitory concentration, Neisseria gonorrhoeae strain CDC # 196",≤ 0.25 µg/mL
same,MIC,"[1]; read-out: Minimal inhibitory concentration, Neisseria gonorrhoeae strain CDC # 198",≤ 0.25 µg/mL
same,MIC,"[1]; read-out: Minimal inhibitory concentration, Neisseria gonorrhoeae strain CDC # 199",≤ 0.25 µg/mL
same,MIC,"[1]; read-out: Minimal inhibitory concentration, Neisseria gonorrhoeae strain CDC # 200",≤ 0.25 µg/mL
same,MIC,"[1]; read-out: Minimal inhibitory concentration, Neisseria gonorrhoeae strain CDC # 201",≤ 0.25 µg/mL
same,MIC,"[1]; read-out: Minimal inhibitory concentration, Neisseria gonorrhoeae strain CDC # 202",≤ 0.25 µg/mL
same,MIC,"[1]; read-out: Minimal inhibitory concentration, Neisseria gonorrhoeae strain CDC # 203",≤ 0.25 µg/mL
same,MIC,"[1]; read-out: Minimal inhibitory concentration, Neisseria gonorrhoeae strain CDC # 204",0.5 µg/mL
same,MIC,"[1]; read-out: Minimal inhibitory concentration, Neisseria gonorrhoeae strain CDC # 205",≤ 0.25 µg/mL
same,MIC,"[1]; read-out: Minimal inhibitory concentration, Neisseria gonorrhoeae strain CDC # 206",≤ 0.25 µg/mL
same,MIC,"[1]; read-out: Minimal inhibitory concentration, Neisseria gonorrhoeae strain CDC # 207",≤ 0.25 µg/mL
same,MIC,"[1]; read-out: Minimal inhibitory concentration, Neisseria gonorrhoeae strain CDC # 208",≤ 0.25 µg/mL
same,MIC,"[1]; read-out: Minimal inhibitory concentration, Neisseria gonorrhoeae strain CDC # 209",≤ 0.25 µg/mL
same,MIC,"[1]; read-out: Minimal inhibitory concentration, Neisseria gonorrhoeae strain CDC # 210",≤ 0.25 µg/mL
same,MIC,"[1]; read-out: Minimal inhibitory concentration, Neisseria gonorrhoeae strain CDC # 211",≤ 0.25 µg/mL
same,MIC,"[1]; read-out: Minimal inhibitory concentration, Neisseria gonorrhoeae strain CDC # 212",≤ 0.25 µg/mL
same,MIC,"[1]; read-out: Minimal inhibitory concentration, Neisseria gonorrhoeae strain CDC # 213",≤ 0.25 µg/mL
same,MIC,"[1]; read-out: Minimal inhibitory concentration, Neisseria gonorrhoeae strain CDC # 214",≤ 0.25 µg/mL
same,in vitro activity (in words),"[1]; against N. gonococcus (N. gonorrhoeae), Example 2 conclusion",Good in vitro activity
same,LD50,rabbits,3200 mg/kg
same,"LD50, median",mice; median of the studies,266 mg/kg
same,LD50,mice,232 to 300 mg/kg
same,"LD50, median",rats; median of the studies,> 1490 mg/kg
same,LD50,rats,980->2000 mg/kg
